Test results taken from US20050124674A1, “Synergistic biocide composition” (priority 1998, published 2005).

Tests used:
Assay in all cases: MIC / synergy test of MIT and IPBC mixtures in Sabouraud maltose broth
Type in all cases: cell-based
Aspergillus niger = conditions: 96 hours; for MIC value: biocide used alone; for Synergy index Qa/QA + Qb/QB: method of Kull et al.
Description: (§1) The calculation of the synergy index is performed according to the method by F. C. Kull et al., Applied Microbiology, vol. 9 (1961), p. 538. The synergy index is calculated here using the following formula: Synergy index SI=Qa/QA+Qb/QB.
(§2) When this formula is used for the biocide system tested here, the variables in the formula have the following meaning: • […]=Concentration of MIT in biocide mixture of MIT and IPBC • QA=Concentration of MIT as the only biocide • Qb=Concentration of IPBC in biocide mixture of MIT and IPBC • QB=Concentration of IPBC as the only biocide
(§3) When the synergy index has a value of less than 1, that means that a synergy of the two biocides exists.
(§4) The test arrangements again included a Sabouraud maltose broth as culture medium. The cell density was 10^6 cells/ml. The incubation time was 96 hours at 25° C. Every sample was incubated at 120 r.p.m. on an incubation shaker.

Candida valida = conditions: 96 hours; for MIC value: biocide used alone; for Synergy index Qa/QA + Qb/QB: method of Kull et al.
Description: as §1, §2, §3, §4

Penicillium funiculosum = conditions: for MIC at MIT concentration Qa: MIT part of the MIC pair; for MIC value: biocide used alone; for Synergy index Qa/QA + Qb/QB: method of Kull et al.; for MIC at IPBC concentration Qb: IPBC part of the MIC pair
Description: as §1, §2, §3
The test arrangement again included a Sabouraud maltose broth as culture medium. The cell density was 10^6 germs/ml. The incubation time was 72 hours at 25° C. Every sample was incubated at 120 r.p.m. on an incubation shaker.
Example 5 was repeated with the change that the incubation time was 96 hours instead of 72 hours.

Saccharomyces cerevisiae = conditions: for MIC at MIT concentration Qa: MIT part of the MIC pair; for MIC value: biocide used alone; for Synergy index Qa/QA + Qb/QB: method of Kull et al.; for MIC at IPBC concentration Qb: IPBC part of the MIC pair
Description: For that purpose, aqueous mixtures with different concentrations of 2-methylisothiazolin-3-one (MIT) and 3-iodo-2-propynyl-N-butylcarbamate (IPBC) were produced and the effects of those mixtures on Saccharomyces cerevisiae were tested.
In addition to the biocide components and water, the aqueous mixtures also contained a nutrient medium, specifically a Sabouraud maltose broth (trade product “Merck No. 10393”). The cell density of Saccharomyces cerevisiae was 10^6 cells/ml. The incubation time was 72 hours at 25° C. Each sample was incubated at 120 r.p.m. on an incubation shaker.
as §1, §2, §3
Example 1 was repeated with the change that the incubation time was 96 hours instead of 72 hours.

Compound	MIC value (Aspergillus niger) [ppm]	Synergy index Qa/QA + Qb/QB (Aspergillus niger)	MIC value (Candida valida) [ppm]	Synergy index Qa/QA + Qb/QB (Candida valida)	MIC value (Penicillium funiculosum; 72 hours) [ppm]	Synergy index Qa/QA + Qb/QB (Penicillium funiculosum; 72 hours)	MIC value (Penicillium funiculosum; 96 hours) [ppm]	Synergy index Qa/QA + Qb/QB (Penicillium funiculosum; 96 hours)	MIC value (Saccharomyces cerevisiae; 72 hours) [ppm]	Synergy index Qa/QA + Qb/QB (Saccharomyces cerevisiae; 72 hours)	MIC value (Saccharomyces cerevisiae; 96 hours) [ppm]	Synergy index Qa/QA + Qb/QB (Saccharomyces cerevisiae; 96 hours)	other results
Cn1sccc1=O [MIT, 2-methylisothiazolin-3-one]	750	1.00	75	1.00	200	1.00	200	1.00	150	1.00	150	1.00	MIC at MIT concentration Qa (Aspergillus niger; MIT part of the MIC pair): 750 ppm; MIC at MIT concentration Qa (Candida valida; MIT part of the MIC pair): 75 ppm; MIC at MIT concentration Qa (Penicillium funiculosum; 72 hours): 200 ppm; MIC at MIT concentration Qa (Penicillium funiculosum; 96 hours): 200 ppm; MIC at MIT concentration Qa (Saccharomyces cerevisiae; 72 hours): 150 ppm; MIC at MIT concentration Qa (Saccharomyces cerevisiae; 96 hours): 150 ppm
CCCCNC(=O)OCC#CI [IPBC, 3-iodo-2-propynyl-N-butylcarbamate]	5	1.00	2.5	1.00	1.5	1.00	1.5	1.00	10	1.00	10	1.00	MIC at IPBC concentration Qb (Aspergillus niger; IPBC part of the MIC pair): 5 ppm; MIC at IPBC concentration Qb (Candida valida; IPBC part of the MIC pair): 2.5 ppm; MIC at IPBC concentration Qb (Penicillium funiculosum; 72 hours): 1.5 ppm; MIC at IPBC concentration Qb (Penicillium funiculosum; 96 hours): 1.5 ppm; MIC at IPBC concentration Qb (Saccharomyces cerevisiae; 72 hours): 10 ppm; MIC at IPBC concentration Qb (Saccharomyces cerevisiae; 96 hours): 10 ppm
